According to US12544375B2, “Small molecule therapeutic for parkinson's disease paired with a biomarker of therapeutic activity” (The Board of Trustees of the Leland Stanford Junior …, priority 2019, dated 2026):

Test system: LRRK2^G2019S, PINK1 null and SNCA^A53T flies
Test: Adult fly climbing ability (negative geotaxis)
Type: in vivo
Details: 2.5 μM in food, two models (LRRK2 and PINK1)
Description: FIG. 4A-FIG. 4I. Miro1 Reducer Rescues PD-Relevant Phenotypes in Flies. For all panels, when Miro1 Reducer was not added, the same volume of the solvent, DMSO, was supplied in fly food. Drug administration (2.5 μM) was started from day 2. (FIG. 4A-FIG. 4C) Survival curves of LRRK2^G2019S (FIG. 4A), PINK1^B9 (imprecise excision, null) and PINK1^RV (the precise excision control for PINK1^B9) (FIG. 4B), and SNCA^A53T flies (FIG. 4C). n=58-150. (FIG. 4D) Dopaminergic (DA) neurons in the PPM1/2 clusters of 22-day old flies were immunostained with anti-TH. (FIG. 4D-FIG. 4F) Quantification of the DA neuron number in the PPL1 or PPM1/2 cluster (total number divided by 2 for each brain). (FIG. 4D) LRRK2^G2019S. n=6-8 brains. […]
Fly climbing (negative geotaxis) ability was evaluated as previously described. Briefly, adult flies were gently tapped to the base of a modified 25 ml climbing tube and their climbing progress was recorded after 45 sec. Three populations of flies were assessed, and for each population, flies were examined 3 times per experiment. The recorded values were used to calculate Average Performance Index (PI). […] If the fly flew away, it was recorded as “1”, and if it was unable to fly, it was recorded as “0”. Wing posture was assessed by viewing each fly through a vial under a dissecting microscope. […] A normal wing posture or thorax (Course et al., 2018) was scored as “1”, otherwise “0”. […]

SMILES: O=C(Nc1ccc(Nc2cc(-n3ccnc3)ncn2)cc1)Nc1cccc(F)c1 [Miro1 Reducer]
- locomotor decline (climbing ability): significantly rescued
